Reference: paper PMC11302666, “The two alternative NADH:quinone oxidoreductases from Staphylococcus aureus: two players with different molecular and cellular roles” (Microbiology Spectrum, 2024)

Columns and labels:
NDH-2B [1] = molecular target: T1, NDH-2B (Staphylococcus aureus, UniProt Q2FZW0); experiment: co-purified flavin identified by HPLC and UV-visible spectrum; format: binding
T1 construct: gene SAOUHSC_00875
T1 sequence (Q2FZW0 1-354): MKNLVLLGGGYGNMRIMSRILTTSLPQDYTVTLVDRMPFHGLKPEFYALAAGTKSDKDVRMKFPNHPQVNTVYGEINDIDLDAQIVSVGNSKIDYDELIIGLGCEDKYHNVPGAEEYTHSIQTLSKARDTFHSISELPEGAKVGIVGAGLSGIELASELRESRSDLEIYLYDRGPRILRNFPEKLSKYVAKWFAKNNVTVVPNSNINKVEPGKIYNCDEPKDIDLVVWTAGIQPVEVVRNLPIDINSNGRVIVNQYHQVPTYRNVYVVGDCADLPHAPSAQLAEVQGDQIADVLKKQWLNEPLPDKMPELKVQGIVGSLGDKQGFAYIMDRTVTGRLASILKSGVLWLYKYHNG

NDH-2A = molecular target: T2, NDH-2A (Staphylococcus aureus, UniProt Q2FZV7); experiment: NADH:DMN oxidoreductase specific activity of purified enzyme, pH […]; format: biochemical
T2 construct: gene SAOUHSC_00878
T2 sequence (Q2FZV7 whole entry): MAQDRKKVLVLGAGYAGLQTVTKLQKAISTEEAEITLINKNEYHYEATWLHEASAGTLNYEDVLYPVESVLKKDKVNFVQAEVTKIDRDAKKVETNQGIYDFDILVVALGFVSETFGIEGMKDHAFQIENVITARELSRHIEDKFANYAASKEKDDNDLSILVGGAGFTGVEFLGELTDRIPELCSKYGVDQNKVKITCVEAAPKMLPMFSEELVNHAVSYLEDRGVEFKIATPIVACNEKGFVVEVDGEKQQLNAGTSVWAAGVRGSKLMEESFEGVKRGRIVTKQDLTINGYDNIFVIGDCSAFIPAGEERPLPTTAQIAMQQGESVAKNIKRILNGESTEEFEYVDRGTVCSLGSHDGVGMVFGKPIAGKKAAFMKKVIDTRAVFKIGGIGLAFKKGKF

NDH-2B [2] = molecular target: T1, NDH-2B; experiment: NADH:DMN oxidoreductase specific activity of purified enzyme; format: biochemical
NDH-2B [3] = molecular target: T1, NDH-2B; experiment: tryptophan fluorescence quenching titration; format: binding
NDH-2B [4] = molecular target: T1, NDH-2B; experiment: tryptophan fluorescence quenching titration and STD-NMR; format: binding
NDH-2B [5] = molecular target: T1, NDH-2B; experiment: steady-state NADPH:DMN oxidoreductase inhibition (Ki app); also tryptophan fluorescence quenching titration; format: biochemical
NDH-2B [6] = molecular target: T1, NDH-2B; experiment: tryptophan fluorescence quenching titration and STD-NMR; KM […] in steady-state kinetics; format: binding
purified protein = substrate: NC(=O)C1=CN([C@@H]2O[C@H](COP(=O)(O)OP(=O)(O)OC[C@H]3O[C@@H](n4cnc5c(N)ncnc54)[C@H](OP(=O)(O)O)[C@@H]3O)[C@@H](O)[C@H]2O)C=CC1; experiment: purified protein; format: biochemical, Staphylococcus aureus; settings: FAD binding site different from that of the quinone; pH 7.0

With Cc1cc2nc3c(=O)[nH]c(=O)nc-3n(C[C@H](O)[C@H](O)[C@H](O)COP(=O)(O)OP(=O)(O)OC[C@H]3O[C@@H](n4cnc5c(N)ncnc54)[C@H](O)[C@@H]3O)c2cc1C [FAD, flavin adenine dinucleotide] the “co-purified flavin identified by HPLC and UV-visible spectrum” value (NDH-2B [1]) was “Subsequent HPLC analysis confirmed the flavin as flavin adenine dinucleotide (FAD)”.

Work on NC(=O)C1=CN([C@@H]2O[C@H](COP(=O)(O)OP(=O)(O)OC[C@H]3O[C@@H](n4cnc5c(N)ncnc54)[C@H](O)[C@@H]3O)[C@@H](O)[C@H]2O)C=CC1 [NADH] yielded an NDH-2A (NDH-2A) of 122.10 ± 18.30 µmol/min/mg and an NDH-2B (NDH-2B [2]) of 34.03 ± 0.86 µmol/min/mg.

NC(=O)c1ccc[n+]([C@@H]2O[C@H](COP(=O)([O-])OP(=O)(O)OC[C@H]3O[C@@H](n4cnc5c(N)ncnc54)[C@H](O)[C@@H]3O)[C@@H](O)[C@H]2O)c1 [NAD^+] gave a Kd (NDH-2B [3]) of 170 ± 7.6 µM.

With NC(=O)c1ccc[n+]([C@@H]2O[C@H](COP(=O)(O)OP(=O)(O)OC[C@H]3O[C@@H](n4cnc5c(N)ncnc54)[C@H](OP(=O)(O)O)[C@@H]3O)[C@@H](O)[C@H]2O)c1 [NADP^+] the Kd (NDH-2B [4]) was 182 ± 29 µM.

For CCCCCCCc1cc(O)c2ccccc2[n+]1[O-] [HQNO, 2-n-heptyl-4-hydroxyquinoline-N-oxide], the Ki (NDH-2B [5]) was 6.4 ± 1.25 µM.

CC1=C(C)C(=O)c2ccccc2C1=O [DMN, 2,3-dimethyl-1,4-naphthoquinone] gave a Kd (NDH-2B [6]) of 160 ± 35 µM.

B1: NDH-2B (Staphylococcus aureus subsp. aureus NCTC 8325) (protein)
chain: T1 sequence (Q2FZW0 1-354)
In the case of B1, the Km (purified protein) is reported as 80.4 ± 7.7 µM.
